Data published in patent US11667602B2, “Compounds and their use” (AstraZeneca AB, priority 2020, dated 2023).

Target: T1, human RXFP1 (Homo sapiens, UniProt Q9HBX9)
T1 sequence (Q9HBX9 1-757): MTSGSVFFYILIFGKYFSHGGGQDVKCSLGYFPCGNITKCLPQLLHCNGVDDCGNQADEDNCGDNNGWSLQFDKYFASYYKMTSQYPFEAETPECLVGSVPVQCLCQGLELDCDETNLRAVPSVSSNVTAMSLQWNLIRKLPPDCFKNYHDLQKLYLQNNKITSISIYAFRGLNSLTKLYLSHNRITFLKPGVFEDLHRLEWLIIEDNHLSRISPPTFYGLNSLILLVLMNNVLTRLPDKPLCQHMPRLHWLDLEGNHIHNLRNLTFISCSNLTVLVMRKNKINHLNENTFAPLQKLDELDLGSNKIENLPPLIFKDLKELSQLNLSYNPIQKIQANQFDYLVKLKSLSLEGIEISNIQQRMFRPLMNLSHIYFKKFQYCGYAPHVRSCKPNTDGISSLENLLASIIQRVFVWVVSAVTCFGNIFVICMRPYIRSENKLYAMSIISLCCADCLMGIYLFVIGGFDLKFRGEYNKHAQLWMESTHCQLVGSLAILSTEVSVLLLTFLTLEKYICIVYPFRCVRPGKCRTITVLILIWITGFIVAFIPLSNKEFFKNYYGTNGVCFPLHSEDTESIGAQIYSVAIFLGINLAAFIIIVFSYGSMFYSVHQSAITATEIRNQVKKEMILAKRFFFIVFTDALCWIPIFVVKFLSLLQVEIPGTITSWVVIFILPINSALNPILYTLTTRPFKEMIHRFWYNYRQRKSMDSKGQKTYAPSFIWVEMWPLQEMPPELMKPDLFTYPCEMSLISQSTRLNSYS
Test: RXFP1 Hu cAMP (Test A)
Format: cell-based
Design: expressed in transfected cells; host or cells: Jump-In T-REx CHO-K1 cells (ThermoFisher), induced with 10 ng/ml doxycycline for 24 h
Details: RXFP1 Hu cAMP; for EC50: read-out: Test A EC50
Summary of the method: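 Competitive HTRF cAMP readout (2 h, room temperature) in CHO-K1 cells stably expressing human RXFP1, induced with 10 ng/ml doxycycline for 24 h; IBMX 0.5 mM final.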

SMILES	Test A Sinf [%]	EC50 [µM]
COc1cc(F)c(OC2CCC(C)(C(=O)O)CC2)cc1C(=O)NC1C2CCC(CC2)C1C(=O)NCC1(C)CCC1 (single isomer, unassigned) [Example 543, (1R,4s)-4-(2-Fluoro-4-methoxy-5-(((2S*,3R*)-3-(((1-methylcyclobutyl)methyl)carbamoyl)bicyclo[2.2.2]octan-2-yl)carbamoyl)phenoxy)-1-methylcyclohexane-1-carboxylic acid]	88	0.45
COc1cc(F)c(O[C@H]2CC[C@@](C)(C(=O)O)CC2)cc1C(=O)NC1C2C=CC(CC2)C1C(=O)NCC1(C)CCC1 (single isomer, unassigned) [Example 544, (1R,4s)-4-(2-Fluoro-4-methoxy-5-(((1R*,2S*,3R*,4S*)-3-(((1-methylcyclobutyl)methyl)carbamoyl)bicyclo[2.2.2]oct-5-en-2-yl)carbamoyl)phenoxy)-1-methylcyclohexane-1-carboxylic acid]	–	> 40
COc1cc(F)c(O[C@H]2CC[C@@](C)(C(=O)O)CC2)cc1C(=O)NC1CC(OC)CC1C(=O)NCC(C)(C)C (single isomer, unassigned) [Example 546, (1R,4s)-4-(2-Fluoro-4-methoxy-5-(((1S*,2R*,4R*)-4-methoxy-2-(neopentylcarbamoyl)cyclopentyl)carbamoyl)phenoxy)-1-methylcyclohexane-1-carboxylic acid]	–	> 40
COc1cc(F)c(O[C@H]2CC[C@@](CO)(C(=O)O)CC2)cc1C(=O)NC1CC(OC)CC1C(=O)NCC(C)(C)C (single isomer, unassigned) [Example 548, (1R,4s)-4-(2-Fluoro-4-methoxy-5-(((1S*,2R*,4R*)-4-methoxy-2-(neopentylcarbamoyl)cyclopentyl)carbamoyl)phenoxy)-1-(hydroxymethyl)cyclohexane-1-carboxylic acid]	117	21
COc1cc(F)c(OC2CCC(CO)(C(=O)O)CC2)cc1C(=O)NC1CC(OC)CC1C(=O)NCC1(C)CCC1 (single isomer, unassigned) [Example 550, (1R,4s)-4-(2-Fluoro-4-methoxy-5-(((1S*,2R*,4R*)-4-methoxy-2-(((1-methylcyclobutyl)methyl)carbamoyl)cyclopentyl)carbamoyl)phenoxy)-1-(hydroxymethyl)cyclohexane-1-carboxylic acid]	–	> 40
COc1cc(F)c(OC2CCC(CO)(C(=O)O)CC2)cc1C(=O)NC1CC(OC)CC1C(=O)NCC1(C)CCC1 (single isomer, unassigned) [Example 551, (1R,4s)-4-(2-Fluoro-4-methoxy-5-(((1S*,2R*,4R*)-4-methoxy-2-(((1-methylcyclobutyl)methyl)carbamoyl)cyclopentyl)carbamoyl)phenoxy)-1-(hydroxymethyl)cyclohexane-1-carboxylic acid]	107	0.7
COc1cc(F)c(-c2ccc(O)c(C(=O)O)c2)cc1C(=O)N[C@H]1[C@@H]2CC[C@@H](C2)[C@H]1C(=O)Nc1cccc(S(=O)(=O)C(F)(F)F)c1 (single isomer, unassigned) [Example 556]	114	0.13
COc1cc(F)c(-c2ccc(O)c(C(=O)O)c2)cc1C(=O)N[C@H]1[C@@H]2CC[C@@H](C2)[C@H]1C(=O)Nc1cccc(S(=O)(=O)C(F)(F)F)c1 (single isomer, unassigned) [Example 557]	68	–
COc1cc(F)c(O[C@H]2CC[C@@](C)(C(=O)O)CC2)cc1C(=O)NC1COCCC1C(=O)Nc1cccc(S(=O)(=O)C(F)(F)F)c1 (single isomer, unassigned) [Example 558, (1R,4s)-4-(2-Fluoro-4-methoxy-5-(((3S*,4S*)-4-((3-((trifluoromethyl)sulfonyl)phenyl)carbamoyl)tetrahydro-2H-pyran-3-yl)carbamoyl)phenoxy)-1-methylcyclohexane-1-carboxylic acid]	–	> 40
COc1cc(F)c(O[C@H]2CC[C@@](C)(C(=O)O)CC2)cc1C(=O)NC1COCC1C(=O)Nc1cccc(S(=O)(=O)C(F)(F)F)c1 (single isomer, unassigned) [Example 560, (1R,4s)-4-(2-Fluoro-4-methoxy-5-(((3S*,4R*)-4-((3-((trifluoromethyl)sulfonyl)phenyl)carbamoyl)tetrahydrofuran-3-yl)carbamoyl)phenoxy)-1-methylcyclohexane-1-carboxylic acid]	–	> 40
COc1cc(F)c(O[C@H]2CC[C@@](C)(C(=O)O)CC2)cc1C(=O)NC1C(C(=O)Nc2cccc(S(=O)(=O)C(F)(F)F)c2)CC(O)C1O (single isomer, unassigned) [Example 562, (1R,4s)-4-(5-(((1S*,2R*,3S*,5S*)-2,3-Dihydroxy-5-((3-((trifluoromethyl)sulfonyl)phenyl)carbamoyl)cyclopentyl)carbamoyl)-2-fluoro-4-methoxyphenoxy)-1-methylcyclohexane-1-carboxylic acid]	–	> 40
COc1cc(F)c(O[C@H]2CC[C@@](C)(C(=O)O)CC2)cc1C(=O)NC1COCC1C(=O)NCC(C)(C)C (single isomer, unassigned) [Example 566, (1R,4s)-4-(2-Fluoro-4-methoxy-5-(((3S*,4R*)-4-(neopentylcarbamoyl)tetrahydrofuran-3-yl)carbamoyl)phenoxy)-1-methylcyclohexane-1-carboxylic acid]	–	> 40
COc1cc(F)c(O[C@H]2CC[C@@](C)(C(=O)O)CC2)cc1C(=O)NC1CCC1C(=O)NCC(C)(C)C (single isomer, unassigned) [Example 568, (1R,4s)-4-(2-Fluoro-4-methoxy-5-(((1S*,2R*)-2-(neopentylcarbamoyl)cyclobutyl)carbamoyl)phenoxy)-1-methylcyclohexane-1-carboxylic acid]	–	> 40
COc1cc(F)c(O[C@H]2CC[C@@](C)(C(=O)O)CC2)cc1C(=O)NC1CCC1C(=O)Nc1ccc(F)c(S(F)(F)(F)(F)F)c1 (single isomer, unassigned) [Example 570, (1R,4s)-4-(2-Fluoro-5-(((1S*,2R*)-2-((4-fluoro-3-(pentafluoro-λ6-sulfaneyl)phenyl)carbamoyl)cyclobutyl)carbamoyl)-4-methoxyphenoxy)-1-methylcyclohexane-1-carboxylic acid]	128	9.2
COc1cc(C#N)c(O[C@H]2CC[C@@](C)(C(=O)O)CC2)cc1C(=O)NC1CCC1C(=O)NCC1(C)CCC1 (single isomer, unassigned) [Example 572, (1R,4s)-4-(2-Cyano-4-methoxy-5-(((1S*,2R*)-2-(((1-methylcyclobutyl)methyl)carbamoyl)cyclobutyl)carbamoyl)phenoxy)-1-methylcyclohexane-1-carboxylic acid]	–	> 40
COc1cc(F)c(O[C@H]2CC[C@@](C)(C(=O)O)CC2)cc1C(=O)NC1COCCC1C(=O)Nc1ccc(F)c(S(F)(F)(F)(F)F)c1 (single isomer, unassigned) [Example 574, (1R,4s)-4-(2-Fluoro-5-(((3S*,4S*)-4-((4-fluoro-3-(pentafluoro-λ6-sulfaneyl)phenyl)carbamoyl)tetrahydro-2H-pyran-3-yl)carbamoyl)-4-methoxyphenoxy)-1-methylcyclohexane-1-carboxylic acid]	–	> 40
COc1cc(F)c(O[C@H]2CC[C@@](CO)(C(=O)O)CC2)cc1C(=O)NC1COCC1C(=O)NCC(C)(C)C (single isomer, unassigned) [Example 578, (1R,4s)-4-(2-Fluoro-4-methoxy-5-(((3S*,4R*)-4-(neopentylcarbamoyl)tetrahydrofuran-3-yl)carbamoyl)phenoxy)-1-(hydroxymethyl)cyclohexane-1-carboxylic acid]	–	> 40
COc1cc(F)c(O[C@H]2CC[C@@](CO)(C(=O)O)CC2)cc1C(=O)NC1COCC1C(=O)NCC1(C)CCC1 (single isomer, unassigned) [Example 580, (1R,4s)-4-(2-Fluoro-4-methoxy-5-(((3S*,4R*)-4-(((1-methylcyclobutyl)methyl)carbamoyl)tetrahydrofuran-3-yl)carbamoyl)phenoxy)-1-(hydroxymethyl)cyclohexane-1-carboxylic acid]	–	> 40
COc1cc(F)c(O[C@H]2CC[C@@](CO)(C(=O)O)CC2)cc1C(=O)NC1C2CCC(C2)C1C(=O)Nc1cccc(S(=O)(=O)C(F)(F)F)c1 (single isomer, unassigned) [Example 584, (1R,4s)-4-(2-Fluoro-4-methoxy-5-(((1S*,2S*,3R*,4R*)-3-((3-((trifluoromethyl)sulfonyl)phenyl)carbamoyl)bicyclo[2.2.1]heptan-2-yl)carbamoyl)phenoxy)-1-(hydroxymethyl)cyclohexane-1-carboxylic acid]	106	0.0007
